Experimental data from publication PMC6320956, “O-Aminoalkyl-O-Trimethyl-2,3-Dehydrosilybins: Synthesis and In Vitro Effects Towards Prostate Cancer Cells” (Molecules, 2018).
Like-named read-outs stand apart in the source and are kept apart here.

Tests used:
[1] = test system: MCF 10A non-neoplastic human mammary epithelial cell line; experiment: WST-1 cell proliferation assay, MCF 10A non-neoplastic cells; assay type: cell-based; conditions: Homo sapiens, MCF-10A, 72 h; WST-1, three days of exposure, mean ± SD, n = 3
Description: (§1) Silibinin and five potent derivatives (11, 29, 31, 37, and 40) were selected for further evaluation against the MCF 10A non-neoplastic human mammary epithelial cell line and PWR-1E non-neoplastic human prostate epithelial cells.
(§2) PC-3, DU145, or LNCaP cells were plated in 96-well plates at a density of 3,200 per well in 200 µL of culture medium. The cells were then separately treated with silibinin, or synthesized silibinin derivatives, at five different doses for three days, while equal treatment volumes of DMSO (0.25%) were used as the vehicle control. The cells were cultured in a CO2 incubator at 37 °C for three days. A total of 10 µL of the premixed WST-1 cell proliferation reagent (Clontech) was added to each well. After mixing gently for one min on an orbital shaker, the cells were incubated for an additional 3 h at 37 °C. To ensure a homogeneous distribution of color, it is important to mix gently on an orbital shaker for one min. The absorbance of each well was measured using a microplate reader (Synergy HT, BioTek, Winooski, VT, USA) at a wavelength of 430 nm. […] For calculating the IC50 values, a linear proliferative inhibition was made based on at least five dosages for each compound.

[2] = test system: PWR-1E non-neoplastic human prostate epithelial cells; experiment: WST-1 cell proliferation assay, PWR-1E non-neoplastic cells; assay type: cell-based; conditions: Homo sapiens, PWR-1E, 72 h; WST-1, three days of exposure, mean ± SD, n = 3
Description: as §1, §2

[3] = test system: prostate cancer cell models; parameters: method as in PMID 17201169, PMID 26446382, PMID 27557939, PMID 21507570; conditions: cited from earlier work
DU145 cells [4] = experiment: WST-1 cell proliferation assay, DU145; assay type: cell-based, human; conditions: for IC50: Homo sapiens, DU-145, 72 h, WST-1, three days of exposure, mean ± SD, n = 3; for IC50 (Silibinin)/IC50(Derivative) DU145: fold potency relative to silibinin
Description: (§3) The in vitro antiproliferative activities of six 7-O-substituted and 26 3-O-substituted silybin derivatives were evaluated using the WST-1 cell proliferation assay, according to the procedure as described in the Experimental Section in both androgen-sensitive (LNCaP) and androgen-insensitive (PC-3 and DU145) human prostate cancer cell lines. Silibinin and docetaxel were used as a positive control for comparison in the parallel experiments and the IC50 values calculated from the dose-response curves are summarized in Table 1. […] A three-carbon linker in 11 and 29, as well as a five-carbon linker in 31, 37 and 40, are beneficial to the potency.
(§4) All cell lines were initially purchased from American Type Culture Collection (ATCC^TM) (Manassas, VA, USA). The PC-3 and LNCaP prostate cancer cell lines were routinely cultured in RPIM-1640 medium supplemented with 10% FBS and 1% penicillin/streptomycin. The DU145 prostate cancer cells were routinely cultured in Eagle’s Minimum Essential Medium (EMEM) supplemented with 10% FBS and 1% penicillin/streptomycin. Cultures were maintained in a high humidity environment supplemented with 5% carbon dioxide at a temperature of 37 °C.
as §2

LNCaP cells [5] = experiment: WST-1 cell proliferation assay, LNCaP; assay type: cell-based, human; conditions: for IC50: Homo sapiens, LNCaP, 72 h, WST-1, three days of exposure, mean ± SD, n = 3; for IC50 (Silibinin)/IC50(Derivative) LNCaP: fold potency relative to silibinin
Description: as §3, §4, §2

PC-3 cells [6] = experiment: WST-1 cell proliferation assay, PC-3; assay type: cell-based, human; conditions: for IC50: Homo sapiens, PC-3, 72 h, WST-1, three days of exposure, mean ± SD, n = 3; for IC50 (Silibinin)/IC50(Derivative) PC-3: fold potency relative to silibinin
Description: as §3, §4, §2

LNCaP cells [7] = conditions: WST-1, three days of exposure; cited from earlier work
PC-3 cells [8] = conditions: WST-1, three days of exposure; cited from earlier work
DU145 cells [9] = conditions: WST-1, three days of exposure; cited from earlier work

Compound	IC50 [1]	IC50 [2]	IC50 [3]	IC50 (DU145 cells [4])	IC50 (LNCaP cells [5])	IC50 (PC-3 cells [6])	melting point	IC50 (Silibinin)/IC50(Derivative) DU145 (DU145 cells [4])	IC50 (Silibinin)/IC50(Derivative) LNCaP (LNCaP cells [5])	IC50 (Silibinin)/IC50(Derivative) PC-3 (PC-3 cells [6])	IC50 (LNCaP cells [7])	IC50 (PC-3 cells [8])	IC50 (DU145 cells [9])
COc1cc(C2Oc3cc([C@H]4Oc5cc(O)cc(O)c5C(=O)[C@@H]4O)ccc3OC2CO)ccc1O (some centres unmarked) [Silibinin, reference compound]	23.8 ± 0.96 µM	20.4 ± 4.09 µM	40 to 106 µM	93.3 ± 13.7 µM	43.7 ± 10.9 µM	72.7 ± 3.15 µM							
COc1ccc(C2Oc3cc(-c4oc5cc(OCCCBr)cc(OC)c5c(=O)c4OC)ccc3OC2CO)cc1OC (centres unmarked) [Compound 8, 7-O-(3′-bromo)propyl-3,5,20-O-trimethyl-2,3-dehydrosilybin]				11.5 ± 2.38 µM	5.71 ± 2.13 µM	26.1 ± 3.58 µM	115 to 116 °C	8	8	3			
CNCCCOc1cc(OC)c2c(=O)c(OC)c(-c3ccc4c(c3)OC(c3ccc(OC)c(OC)c3)C(CO)O4)oc2c1 (centres unmarked) [Compound 9, 7-O-(N-Methylaminopropyl)-3,5,20-O-trimethyl-2,3-dehydrosilybin]				39.6 ± 9.49 µM	12.1 ± 1.81 µM	42.6 ± 6.61 µM	125 to 127 °C	2	4	2			
CCCOc1c(-c2ccc3c(c2)OC(c2ccc(O)c(OC)c2)C(CO)O3)oc2cc(O)cc(O)c2c1=O (centres unmarked) [Compound 4, 3-O-propyl-2,3-dehydrosilybin, reference compound]								8	21	42	2070 ± 180 nM	1710 ± 450 nM	11 ± 0.68 µM
